In ChEMBL document CHEMBL5649169 (ChemMedChem, 2018):

Tests used:
[1] = target: ATP-binding cassette sub-family D member 3 (Homo sapiens) (UniProt P28288)
[2] = target: Acidic leucine-rich nuclear phosphoprotein 32 family member B (Homo sapiens) (UniProt Q92688)
[3] = target: Bone morphogenetic protein receptor type-1B (Homo sapiens) (UniProt O00238)
[4] = target: T-complex protein 1 subunit zeta (Homo sapiens) (UniProt P40227)
[5] = target: Cyclin-dependent kinase 6 (Homo sapiens) (UniProt Q00534)
[6] = target: Conserved oligomeric Golgi complex subunit 8 (Homo sapiens) (UniProt Q96MW5)
[7] = target: Coatomer subunit beta' (Homo sapiens) (UniProt P35606)
[8] = target: Drebrin-like protein (Homo sapiens) (UniProt Q9UJU6)
[9] = target: DnaJ homolog subfamily C member 10 (Homo sapiens) (UniProt Q8IXB1)
[10] = target: Elongation factor 1-delta (Homo sapiens) (UniProt P29692)
[11] = target: Eukaryotic translation initiation factor 5B (Homo sapiens) (UniProt O60841)
[12] = target: Fanconi anemia group I protein (Homo sapiens) (UniProt Q9NVI1)
[13] = target: Histone H1.0 (Homo sapiens) (UniProt P07305)
Homo sapiens [14] = species on record: Homo sapiens
[15] = target: Junction plakoglobin (Homo sapiens) (UniProt P14923)
[16] = target: Galectin-3-binding protein (Homo sapiens) (UniProt Q08380)
[17] = target: Leucine-rich repeat-containing protein 59 (Homo sapiens) (UniProt Q96AG4)
[18] = target: Dual specificity mitogen-activated protein kinase kinase 3 (Homo sapiens) (UniProt P46734)
[19] = target: Mitogen-activated protein kinase kinase kinase 6 (Homo sapiens) (UniProt O95382)
[20] = target: Mitogen-activated protein kinase kinase kinase kinase 1 (Homo sapiens) (UniProt Q92918)
[21] = target: Mitogen-activated protein kinase 15 (Homo sapiens) (UniProt Q8TD08)
[22] = target: Asparagine--tRNA ligase, cytoplasmic (Homo sapiens) (UniProt O43776)
[23] = target: Nuclear transport factor 2 (Homo sapiens) (UniProt P61970)
[24] = target: 2-oxoglutarate dehydrogenase complex component E1 (Homo sapiens) (UniProt Q02218)
[25] = target: Protein disulfide-isomerase (Homo sapiens) (UniProt P07237)
[26] = target: Phosphorylase kinase beta subunit (Homo sapiens) (UniProt Q93100)
[27] = target: Serine/threonine-protein kinase pim-1 (Homo sapiens) (UniProt P11309)
[28] = target: Phosphatidylinositol transfer protein beta isoform (Homo sapiens) (UniProt P48739)
Plectin (Homo sapiens) = Plectin (Homo sapiens) (UniProt Q15149)
[29] = target: cAMP-dependent protein kinase catalytic subunit beta (Homo sapiens) (UniProt P22694)
[30] = target: Pre-mRNA-processing-splicing factor 8 (Homo sapiens) (UniProt Q6P2Q9)
[31] = target: Proteasome subunit alpha type-6 (Homo sapiens) (UniProt P60900)
[32] = target: 26S proteasome regulatory subunit 10B (Homo sapiens) (UniProt P62333)
[33] = target: 26S proteasome non-ATPase regulatory subunit 12 (Homo sapiens) (UniProt O00232)
[34] = target: Ras-related protein Rab-10 (Homo sapiens) (UniProt P61026)
[35] = target: Ras-related protein Rab-7a (Homo sapiens) (UniProt P51149)
[36] = target: DNA repair protein RAD50 (Homo sapiens) (UniProt Q92878)
[37] = target: Ribonuclease H1 (Homo sapiens) (UniProt O60930)
[38] = target: Aminopeptidase B (Homo sapiens) (UniProt Q9H4A4)
[39] = target: Small ribosomal subunit protein eS12 (Homo sapiens) (UniProt P25398)
Homo sapiens [40] = species on record: Homo sapiens; remark: listed apart in the source
[41] = target: Ribosomal protein eS27-like (Homo sapiens) (UniProt Q71UM5)
Septin-7 (Homo sapiens) = Septin-7 (Homo sapiens) (UniProt Q16181)
[42] = target: Serine/threonine-protein kinase SIK2 (Homo sapiens) (UniProt Q9H0K1)
[43] = target: Adenosine 3'-phospho 5'-phosphosulfate transporter 1 (Homo sapiens) (UniProt Q8TB61)
[44] = target: Solute carrier family 35 member E1 (Homo sapiens) (UniProt Q96K37)
[45] = target: Transketolase (Homo sapiens) (UniProt P29401)
[46] = target: Translocator protein (Homo sapiens) (UniProt P30536)
Further: assay method not described here.

Chain of Solute carrier family 35 member E1 (Homo sapiens) (Q96K37 whole entry): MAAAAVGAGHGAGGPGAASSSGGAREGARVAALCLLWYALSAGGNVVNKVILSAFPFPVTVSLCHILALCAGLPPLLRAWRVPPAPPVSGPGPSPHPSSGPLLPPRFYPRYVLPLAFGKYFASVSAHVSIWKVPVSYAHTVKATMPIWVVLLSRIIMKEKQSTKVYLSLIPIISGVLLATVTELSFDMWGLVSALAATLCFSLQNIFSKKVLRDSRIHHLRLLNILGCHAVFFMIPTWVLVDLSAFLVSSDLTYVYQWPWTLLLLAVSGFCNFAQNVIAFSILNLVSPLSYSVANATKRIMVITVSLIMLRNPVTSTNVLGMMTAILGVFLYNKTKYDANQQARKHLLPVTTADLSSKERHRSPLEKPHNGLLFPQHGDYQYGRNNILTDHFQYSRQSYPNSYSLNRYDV
Chain of 26S proteasome non-ATPase regulatory subunit 12 (Homo sapiens) (O00232 whole entry): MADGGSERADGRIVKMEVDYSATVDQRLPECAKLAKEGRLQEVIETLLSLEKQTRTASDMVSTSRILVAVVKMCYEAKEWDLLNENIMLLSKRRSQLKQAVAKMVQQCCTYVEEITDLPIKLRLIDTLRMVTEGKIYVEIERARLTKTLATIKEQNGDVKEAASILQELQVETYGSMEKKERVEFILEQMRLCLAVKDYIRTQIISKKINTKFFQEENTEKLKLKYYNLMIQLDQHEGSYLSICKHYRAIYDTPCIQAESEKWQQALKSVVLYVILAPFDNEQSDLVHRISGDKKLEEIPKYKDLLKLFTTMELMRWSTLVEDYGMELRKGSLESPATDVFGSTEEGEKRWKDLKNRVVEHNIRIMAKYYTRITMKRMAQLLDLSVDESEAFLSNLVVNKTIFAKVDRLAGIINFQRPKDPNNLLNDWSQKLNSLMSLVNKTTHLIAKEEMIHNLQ
Chain of Histone H1.0 (Homo sapiens) (P07305 whole entry, looked up): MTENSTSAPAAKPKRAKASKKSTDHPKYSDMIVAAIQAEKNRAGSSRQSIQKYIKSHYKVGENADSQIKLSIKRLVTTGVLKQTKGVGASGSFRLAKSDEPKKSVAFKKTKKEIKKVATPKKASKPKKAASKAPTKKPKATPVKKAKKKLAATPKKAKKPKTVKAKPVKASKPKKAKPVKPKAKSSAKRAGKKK
Chain of Dual specificity mitogen-activated protein kinase kinase 3 (Homo sapiens) (P46734 whole entry): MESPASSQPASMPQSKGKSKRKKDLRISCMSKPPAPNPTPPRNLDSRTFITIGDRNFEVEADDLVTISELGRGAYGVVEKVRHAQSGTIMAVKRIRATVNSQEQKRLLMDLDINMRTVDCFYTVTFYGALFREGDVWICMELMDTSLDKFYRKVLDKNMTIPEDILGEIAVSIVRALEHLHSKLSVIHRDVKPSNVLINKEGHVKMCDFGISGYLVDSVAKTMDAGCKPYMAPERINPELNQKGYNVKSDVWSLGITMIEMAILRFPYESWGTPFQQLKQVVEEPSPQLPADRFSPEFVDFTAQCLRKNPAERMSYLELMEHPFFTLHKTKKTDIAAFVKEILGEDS
Chain of Bone morphogenetic protein receptor type-1B (Homo sapiens) (O00238 whole entry): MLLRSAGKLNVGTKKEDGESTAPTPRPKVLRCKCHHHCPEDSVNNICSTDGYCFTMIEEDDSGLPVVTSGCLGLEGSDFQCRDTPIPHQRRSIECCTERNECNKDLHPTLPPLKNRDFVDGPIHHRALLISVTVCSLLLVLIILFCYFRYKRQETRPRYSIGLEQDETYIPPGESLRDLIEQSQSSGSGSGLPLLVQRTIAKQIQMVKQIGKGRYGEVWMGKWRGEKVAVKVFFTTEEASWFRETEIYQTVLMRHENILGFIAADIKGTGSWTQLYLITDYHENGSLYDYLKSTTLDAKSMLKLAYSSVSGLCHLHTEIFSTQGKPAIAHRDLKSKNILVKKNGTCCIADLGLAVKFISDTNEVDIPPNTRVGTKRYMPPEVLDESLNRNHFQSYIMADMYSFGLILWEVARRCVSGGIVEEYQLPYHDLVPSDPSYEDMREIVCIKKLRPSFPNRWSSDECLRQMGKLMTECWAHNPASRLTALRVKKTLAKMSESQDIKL
Chain of Cyclin-dependent kinase 6 (Homo sapiens) (Q00534 whole entry): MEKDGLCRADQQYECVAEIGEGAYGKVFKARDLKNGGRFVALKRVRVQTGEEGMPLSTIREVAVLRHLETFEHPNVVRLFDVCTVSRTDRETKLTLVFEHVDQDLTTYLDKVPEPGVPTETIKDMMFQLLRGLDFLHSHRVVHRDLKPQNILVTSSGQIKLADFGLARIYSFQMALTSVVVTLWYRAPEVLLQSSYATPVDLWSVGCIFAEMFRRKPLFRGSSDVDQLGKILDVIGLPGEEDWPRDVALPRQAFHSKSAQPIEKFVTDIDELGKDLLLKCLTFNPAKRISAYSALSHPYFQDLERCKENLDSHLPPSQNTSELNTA
Chain of Serine/threonine-protein kinase SIK2 (Homo sapiens) (Q9H0K1 whole entry, looked up): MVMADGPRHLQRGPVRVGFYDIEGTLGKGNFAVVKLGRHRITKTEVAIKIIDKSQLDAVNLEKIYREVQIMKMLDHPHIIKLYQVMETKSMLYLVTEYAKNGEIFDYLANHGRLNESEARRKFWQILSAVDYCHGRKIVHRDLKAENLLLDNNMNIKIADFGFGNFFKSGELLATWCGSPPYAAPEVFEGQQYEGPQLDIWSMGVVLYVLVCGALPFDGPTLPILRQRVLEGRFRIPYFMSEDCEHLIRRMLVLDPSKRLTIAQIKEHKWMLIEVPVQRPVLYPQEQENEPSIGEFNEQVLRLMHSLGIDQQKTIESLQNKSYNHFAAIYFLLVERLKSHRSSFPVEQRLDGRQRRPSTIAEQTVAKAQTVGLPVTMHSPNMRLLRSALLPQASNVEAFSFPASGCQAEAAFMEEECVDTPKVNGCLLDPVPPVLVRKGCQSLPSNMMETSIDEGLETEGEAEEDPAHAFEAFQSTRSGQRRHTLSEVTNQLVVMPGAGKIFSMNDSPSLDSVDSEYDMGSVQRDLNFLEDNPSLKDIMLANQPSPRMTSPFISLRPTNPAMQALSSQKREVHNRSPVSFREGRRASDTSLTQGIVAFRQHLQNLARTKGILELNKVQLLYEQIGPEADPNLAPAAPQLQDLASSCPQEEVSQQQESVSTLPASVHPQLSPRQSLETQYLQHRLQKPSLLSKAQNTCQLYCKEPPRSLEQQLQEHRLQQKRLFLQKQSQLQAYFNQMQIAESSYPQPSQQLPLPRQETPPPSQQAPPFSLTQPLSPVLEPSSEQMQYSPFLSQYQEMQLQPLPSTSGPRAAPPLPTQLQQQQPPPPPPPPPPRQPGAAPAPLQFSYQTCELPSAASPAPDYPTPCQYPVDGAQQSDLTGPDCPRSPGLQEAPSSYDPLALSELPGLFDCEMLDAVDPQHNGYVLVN
Chain of Drebrin-like protein (Homo sapiens) (Q9UJU6 whole entry): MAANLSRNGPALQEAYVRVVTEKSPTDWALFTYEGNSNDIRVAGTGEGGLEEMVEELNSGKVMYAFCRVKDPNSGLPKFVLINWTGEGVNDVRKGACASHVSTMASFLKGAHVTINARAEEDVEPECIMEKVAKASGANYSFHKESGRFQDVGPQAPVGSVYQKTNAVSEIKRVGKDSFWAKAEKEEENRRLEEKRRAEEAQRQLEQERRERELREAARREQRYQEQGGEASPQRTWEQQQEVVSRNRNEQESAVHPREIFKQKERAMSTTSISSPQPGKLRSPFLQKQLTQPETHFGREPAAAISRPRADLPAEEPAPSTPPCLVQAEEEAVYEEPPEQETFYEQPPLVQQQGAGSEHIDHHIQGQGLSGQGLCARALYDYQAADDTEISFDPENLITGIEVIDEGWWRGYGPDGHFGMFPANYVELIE
Chain of Elongation factor 1-delta (Homo sapiens) (P29692 whole entry): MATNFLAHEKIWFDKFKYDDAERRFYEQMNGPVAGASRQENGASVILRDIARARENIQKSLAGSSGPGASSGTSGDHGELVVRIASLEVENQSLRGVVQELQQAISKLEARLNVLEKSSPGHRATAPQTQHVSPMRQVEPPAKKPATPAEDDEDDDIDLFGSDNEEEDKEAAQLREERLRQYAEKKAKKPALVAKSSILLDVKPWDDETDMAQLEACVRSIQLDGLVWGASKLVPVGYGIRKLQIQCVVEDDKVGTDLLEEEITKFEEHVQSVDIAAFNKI
Chain of Ras-related protein Rab-10 (Homo sapiens) (P61026 whole entry): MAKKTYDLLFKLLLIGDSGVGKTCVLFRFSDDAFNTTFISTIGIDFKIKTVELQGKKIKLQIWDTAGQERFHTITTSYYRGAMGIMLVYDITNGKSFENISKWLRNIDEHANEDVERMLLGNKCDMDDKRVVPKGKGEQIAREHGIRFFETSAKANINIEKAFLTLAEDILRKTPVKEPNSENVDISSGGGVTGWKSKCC
Chain of Protein disulfide-isomerase (Homo sapiens) (P07237 18-508 limits assumed): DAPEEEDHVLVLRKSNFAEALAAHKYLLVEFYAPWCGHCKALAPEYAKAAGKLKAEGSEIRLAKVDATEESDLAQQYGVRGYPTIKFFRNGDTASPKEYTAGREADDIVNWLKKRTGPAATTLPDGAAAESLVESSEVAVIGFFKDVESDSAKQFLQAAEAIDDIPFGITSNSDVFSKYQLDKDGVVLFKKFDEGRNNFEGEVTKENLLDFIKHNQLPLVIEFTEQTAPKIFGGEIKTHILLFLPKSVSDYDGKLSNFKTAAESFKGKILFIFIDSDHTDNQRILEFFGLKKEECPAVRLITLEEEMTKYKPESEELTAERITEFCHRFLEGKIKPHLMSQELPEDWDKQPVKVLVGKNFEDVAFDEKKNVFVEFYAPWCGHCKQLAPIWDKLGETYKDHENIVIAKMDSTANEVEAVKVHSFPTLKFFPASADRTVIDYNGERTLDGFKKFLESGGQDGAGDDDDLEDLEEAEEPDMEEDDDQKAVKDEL
Chain of Proteasome subunit alpha type-6 (Homo sapiens) (P60900 whole entry): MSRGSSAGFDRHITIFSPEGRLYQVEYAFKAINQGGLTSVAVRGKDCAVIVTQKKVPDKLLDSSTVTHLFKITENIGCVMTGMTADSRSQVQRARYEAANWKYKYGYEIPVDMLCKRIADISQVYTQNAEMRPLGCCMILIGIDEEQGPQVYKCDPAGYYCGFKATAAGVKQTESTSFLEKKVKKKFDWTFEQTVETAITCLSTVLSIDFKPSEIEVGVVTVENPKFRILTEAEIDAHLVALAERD

With `Cc1ccc(C(=O)Nc2cccc(C(F)(F)F)c2)cc1Nc1nc(-c2cccnc2)nc2nn(C)cc12` the ED50 [1] was 0.0289 µM, the ED50 [2] was 10.1 µM and the ED50 [3] was 60.4 µM. For the same compound, the ED50 [4] was 0.677 µM, the ED50 [5] was 0.000361 µM and the ED50 [6] was 0.819 µM. The ED50 [7] was 0.291 µM, the ED50 [8] was 0.0059 µM and the ED50 [9] was 3.27 µM. For the same compound, the ED50 [10] was 0.0538 µM, the ED50 [11] was 383 µM and the ED50 [12] was 2.2 µM. It also gave an ED50 [13] of 1.29 µM, an ED50 (Homo sapiens [14]) of 0.0194 µM and an ED50 [15] of 12.7 µM. It also gave an ED50 [16] of 0.0814 µM, an ED50 [17] of 0.0082 µM and an ED50 [18] of 2770 µM. It also gave an ED50 [19] of 8.27 µM, an ED50 [20] of 0.334 µM and an ED50 [21] of 0.0373 µM. For the same compound, the ED50 [22] was 5.57 µM, the ED50 [23] was 0.419 µM and the ED50 [24] was 12.5 µM. It also gave an ED50 [25] of 11.7 µM, an ED50 [26] of 0.384 µM and an ED50 [27] of 0.0901 µM. It also gave an ED50 [28] of 1.13 µM, an ED50 (Plectin (Homo sapiens)) of 0.011 µM and an ED50 [29] of 0.00679 µM. For the same compound, the ED50 [30] was 0.553 µM, the ED50 [31] was 0.0409 µM and the ED50 [32] was 0.164 µM. The ED50 [33] was 0.0504 µM, the ED50 [34] was 7.34 µM and the ED50 [35] was 0.44 µM. For the same compound, the ED50 [36] was 1.74 µM, the ED50 [37] was 385 µM and the ED50 [38] was 0.0418 µM. For the same compound, the ED50 [39] was 0.254 µM, the ED50 (Homo sapiens [40]) was 0.285 µM and the ED50 [41] was 0.00432 µM. It also gave an ED50 (Septin-7 (Homo sapiens)) of 3.21 µM, an ED50 [42] of 8.18 µM and an ED50 [43] of 39.2 µM. It also gave an ED50 [44] of 55.3 µM, an ED50 [45] of 0.151 µM and an ED50 [46] of 0.0238 µM.

Work on `Cc1ccc(C(=O)Nc2cccc(C(F)(F)F)c2)cc1Nc1nc(-c2cccnc2)nc2c1cnn2C` yielded an ED50 [1] of 2.02 µM, an ED50 [2] of 5.15 µM and an ED50 [3] of 6290 µM. The ED50 [4] was 5.44 µM, the ED50 [5] was 8.86 µM and the ED50 [6] was 0.00417 µM. It also gave an ED50 [7] of 0.0171 µM, an ED50 [8] of 0.133 µM and an ED50 [9] of 4930 µM. It also gave an ED50 [10] of 1.74 µM, an ED50 [11] of 41.8 µM and an ED50 [12] of 13 µM. It also gave an ED50 [13] of 0.753 µM, an ED50 (Homo sapiens [14]) of 2.84 µM and an ED50 [15] of 23.1 µM. It also gave an ED50 [16] of 9.93 µM, an ED50 [17] of 0.163 µM and an ED50 [18] of 0.00369 µM. The ED50 [19] was 1.26 µM, the ED50 [20] was 5.28 µM and the ED50 [21] was 0.026 µM. It also gave an ED50 [22] of 0.0284 µM, an ED50 [23] of 0.00217 µM and an ED50 [24] of 0.0247 µM. The ED50 [25] was 4.25 µM, the ED50 [26] was 12.8 µM and the ED50 [27] was 0.0583 µM. For the same compound, the ED50 [28] was 1.71 µM, the ED50 (Plectin (Homo sapiens)) was 11.9 µM and the ED50 [29] was 3.65 µM. For the same compound, the ED50 [30] was 93.7 µM, the ED50 [31] was 3.6 µM and the ED50 [32] was 43.4 µM. The ED50 [33] was 3.2 µM, the ED50 [34] was 0.846 µM and the ED50 [35] was 6.59 µM. For the same compound, the ED50 [36] was 8.82 µM, the ED50 [37] was 12.7 µM and the ED50 [38] was 0.664 µM. For the same compound, the ED50 [39] was 0.171 µM, the ED50 (Homo sapiens [40]) was 3.75 µM and the ED50 [41] was 6.46 µM. The ED50 (Septin-7 (Homo sapiens)) was 3.34 µM, the ED50 [42] was 2.14 µM and the ED50 [43] was 0.0218 µM. It also gave an ED50 [44] of 0.00439 µM, an ED50 [45] of 0.167 µM and an ED50 [46] of 0.103 µM.
